{"source": "paper PMC7054359", "about": "“Effects of route of administration on oxytocin-induced changes in regional cerebral blood flow in humans” (Nature Communications, 2020)", "key": {"[1]": {"experiment": "Plasma OT pharmacokinetics after intravenous, nasal spray or nebulizer administration (radioimmunoassay after extraction)", "format": "in vivo, humans", "set-up": "Plasma OT Concentration, individual participants: unit not given here", "details": "for Plasma OT Concentration, individual participants: Condition IV (10 IU), source data of Fig. 6a; for Plasma OT Concentration, individual participants / Bioavailability, individual participants: unit not given; for Bioavailability, individual participants: source data of Fig. 6c, one row per participant; for AUC of plasmatic oxytocin post-dosing / Cmax: 40 IU OT; for AUC of plasmatic oxytocin post-dosing: trapezoidal rule, 120 min post-dosing; for Cmax: healthy men, plasma, radioimmunoassay, read-out: Cmax, maximum plasmatic concentration achieved after dosing", "from_the_text": "For the intranasal administrations, participants self-administered a nominal dose of 40 IU OT (Syntocinon; 40IU/ml; Novartis, Basel, Switzerland), one of the highest clinically applicable doses. We have shown that 40IU delivered with a standard nasal spray induce robust rCBF changes in the human brain in a between-subjects, single-blind design study. For the intranasal administration, we used specially manufactured placebo that contained the same excipients as Syntocinon except for oxytocin.\nThe aerosol droplet size of three Syntocinon spray bottles was assessed by laser diffraction (Malvern Spraytec, Malvern Panalytical, Worcestershire, UK). The mass median diameter (MMD) of the aerosol plume was 37 ± 2.5 µm.\nPARI SINUS nebulizer: Participants self-administered 40IU OT (Syntocinon) or placebo, by operating the SINUS nebulizer for 3 min in each nostril (6 min in total), according to instructions. The correct application of the device was confirmed by determining gravimetrically the administered volume. Participants were instructed to breathe using only their mouth and to keep a constant breath rate with their soft palate closed, to minimize delivery to the lungs. The PARI SINUS (PARI GmbH, Starnberg, Germany) is designed to deliver aerosolised drugs to the sinus cavities by ventilating the sinuses via pressure fluctuations. The SINUS nebulizer produces an aerosol with 3 µm MMD, which is superimposed with a 44 Hz pulsation frequency. […] The efficacy of this system was first shown in a scintigraphy study by ref. [76]. Since the entrance of the sinuses is located near the olfactory region, an improved delivery to the olfactory region was expected compared to nasal sprays. Other studies[32] have shown up to 9.0% (±1.9%) of the total administered dose to be delivered to the olfactory region, 15.7 (±2.4%) to the upper nose.\nFor the intravenous administration, we delivered 10IU OT (Syntocinon injection formulation, 10IU/ml, Alliance, UK) or saline via slow infusion over 10 min (1IU/min). A 50-ml syringe was loaded with either 32 ml of 0.9% sodium chloride (placebo) or 30 ml of 0.9% sodium chloride with […] of Syntocinon (10IU/ml). […] The ECG was monitored during the intravenous administration interval. We selected the intravenous dose and rate of administration to assure high plasmatic concentrations of OT throughout the observation period while restricting cardiovascular effects to tolerable and safe limits. A rate of 1IU per minute is typically used in caesarean sections and is considered to have minimised side effects[77],[78].\nWe collected plasma samples at baseline and at five timepoints post-dosing (as detailed in Fig. 1) to measure changes in the concentration of OT. Plasmatic OT was assayed by radioimmunoassay (RIAgnosis, Munich, Germany) after extraction, currently the gold-standard technique for OT quantifications in peripheral fluids. The detection limit of this assay is in the 0.5 pg/sample range. Cross-reactivity with vasopressin, ring moieties and terminal tripeptides of both OT and vasopressin and a wide variety of peptides comprising […] (alpha-melanocyte-stimulating hormone) up to 41 (corticotrophin-releasing factor) amino acids are <0.7% throughout. The intra- and inter-assay variabilities are <10%[80].\nPharmacokinetic analysis: From the plasmatic concentrations of OT at several timepoints after dosing we calculated the area under the curve (AUC) using the trapezoidal rule for each subject and session. AUC provides a single metric that reflects variations in plasma levels of OT concentration following OT/placebo administration for each session and each participant. […] Mean AUCs were compared between the three methods of administration with a repeated measures one-way analysis of variance, using the Greenhouse-Geisser correction against violations of sphericity. Post-hoc comparisons between methods were implemented using Tukey’s correction for multiple comparisons. […]"}, "[2]": {"details": "cited from earlier work", "from_the_text": "Human studies almost exclusively target the central OT system by administering synthetic OT using nasal sprays, despite a lack of understanding of the mechanisms underpinning its pharmacodynamic effects. […] The intranasal administration of OT has been favoured under the assumption that once in the nasal cavity, OT can reach the brain directly, bypassing the BBB[13]. […] The first mechanism po ..."}, "[3]": {"details": "intraperitoneal administration, cited from earlier work", "from_the_text": "With respect to changes in rCBF induced by the intravenous administration of OT, there may be three possible mediating mechanisms. First, it is possible that peripheral effects of OT on vegetative territories, such as the heart, may be an indirect source of changes in areas of the interoceptive/allostasis network in the human brain, where the dorsal amygdala and the pregenual anterior cingulate cortex assume the role of visceromotor hubs[43]. […] The delivery to the paranasal sinuses seems to be increased about 3-5x by using the aerosol pulsation deposition method implemented by the PARI sinus nebuliser(6, 7). The paranasal sinus mucosa is also innervated by the trigeminal nerve which is one of the pathways propo ..."}, "[4]": {"details": "intravenous infusion of labelled synthetic OT; cited from earlier work", "from_the_text": "With respect to changes in rCBF induced by the intravenous administration of OT, there may be three possible mediating mechanisms. First, it is possible that peripheral effects of OT on vegetative territories, such as the heart, may be an indirect source of changes in areas of the interoceptive/allostasis network in the human brain, where the dorsal amygdala and the pregenual anterior cingulate cortex assume the role of visceromotor hubs[43]."}}, "note": "“And” between values parts separate entries of the source, which are not always exact repeats. Equal entries are not always repeated. Where two headings read alike, the source gives them in different places."}
{"smiles": "CC[C@H](C)[C@@H]1NC(=O)[C@H](Cc2ccc(O)cc2)NC(=O)[C@@H](N)CSSC[C@@H](C(=O)N2CCC[C@H]2C(=O)N[C@@H](CC(C)C)C(=O)NCC(N)=O)NC(=O)[C@H](CC(N)=O)NC(=O)[C@H](CCC(N)=O)NC1=O", "note": "[OT, oxytocin]", "values": [{"measurement": "Plasma OT Concentration, individual participants", "setting": "[1]; Sample 2", "value": "65.12 and 59.67 and 47.11"}, {"measurement": "Plasma OT Concentration, individual participants", "setting": "[1]; Sample 3", "value": 68.1}, {"measurement": "Plasma OT Concentration, individual participants", "setting": "[1]; Sample 4", "value": "30.93 and 53.9"}, {"measurement": "Plasma OT Concentration, individual participants", "setting": "[1]; Sample 6", "value": "12.86 and 20.71"}, {"measurement": "Plasma OT Concentration, individual participants", "setting": "[1]; Sample 7", "value": "7.3 and 7.23 and 4.61"}, {"measurement": "Plasma OT Concentration, individual participants", "setting": "[1]; Sample 8", "value": 3.77}, {"measurement": "Time of peak plasma concentration", "setting": "[1]; Intravenous, 10 IU", "value": "at the end of dosing"}, {"measurement": "Time of peak plasma concentration", "setting": "[1]; Nasal spray, 40 IU", "value": "at the end of dosing"}, {"measurement": "Bioavailability, individual participants", "setting": "[1]; Nebuliser 40 IU", "value": "31.90 and 10.30 and 3.30 and 7.94 and 12.67 and 62.94 and 5.39 and 6.53 and 8.236 and 4.17 and 6.07 and 5.20 and 6.82 and 10.22 and 6.95 and 32.80"}, {"measurement": "AUC of plasmatic oxytocin post-dosing", "setting": "[1]; PARI SINUS nebulizer, mean (1 SEM)", "value": "15.30 (2.14) pg.ml-1.h-1"}, {"measurement": "Bioavailability, individual participants", "setting": "[1]; Spray 40 IU", "value": "6.85 and 11.96 and 5.38 and 16.81 and 5.32 and 6.16 and 8.93 and 4.67 and 8.4323 and 12.50 and 14.77 and 6.29 and 7.56 and 11.34 and 5.36 and 37.05"}, {"measurement": "AUC of plasmatic oxytocin post-dosing", "setting": "[1]; Standard nasal spray, mean (1 SEM)", "value": "15.70 (1.97) pg.ml-1.h-1"}, {"measurement": "Cmax", "setting": "[1]; human, in vivo, inhaled or intranasal, 40 IU, PARI SINUS nebulizer, mean (1 SEM)", "value": 0.0163, "unit": "ng/mL"}, {"measurement": "Cmax", "setting": "[1]; human, in vivo, inhaled or intranasal, 40 IU, Standard nasal spray, mean (1 SEM)", "value": 0.0158, "unit": "ng/mL"}, {"measurement": "Tmax", "setting": "[1]; human, in vivo, inhaled or intranasal, Nebulizer, 40 IU, post-dosing, read-out: Time of peak plasma concentration (converted)", "value": "~15", "unit": "min"}, {"measurement": "bioavailability", "setting": "[1]; human, in vivo, inhaled or intranasal, Standard nasal spray 40 IU, dose-corrected AUC intranasal / dose-corrected AUC intravenous, mean (1 SEM), read-out: Absolute bioavailability of oxytocin absorbed to the plasma", "value": 10.6, "unit": "%"}, {"measurement": "Crossing of the blood-brain barrier", "setting": "[2]", "value": "unable to cross the blood-brain barrier (BBB) in significant amounts"}, {"measurement": "OT concentration in brain extracellular fluid", "setting": "[3]; wild-type and OT knockout mice", "value": "increased the concentration of OT in the extracellular fluid in the amygdala and dorsal hippocampus"}, {"measurement": "Time the concentration in amygdala extracellular fluid remains elevated", "setting": "[3]; ref Smith et al. 2019", "value": "about 1 h"}, {"measurement": "Time to reach the extracellular fluid in the amygdala", "setting": "[3]; ref Smith et al. 2019", "value": "≤ 30", "unit": "min"}, {"measurement": "Synthetic OT levels in the CSF", "setting": "[4]", "value": "increased synthetic OT levels in the CSF"}]}
